According to patent US5948749A, “Pharmaceutical preparations for intranasal administration” (Fuji Yakuhin Company, Limited, priority 1996, dated 1999):

Tested on: ophthalmic mucous membrane
Settings: rabbit, in vivo
Description: The testing method of the present test was based on the guidelines given by OECD. That means, 3 rabbits were used in this study, and a test drug was administered once into one eye of a rabbit in the conjunctival sac, and the other eye was used as control. […] Eyes were washed using lukewarm water of about 35° C. at the observation 24 hours after the administration. Scores of the conjunctival reaction obtained by administration of each test drug were calculated according to the assessment criteria of Draize method. The maximum of total score at each observation time was obtained for each test drug and for each test animal, and the average was calculated, then irritation evaluation in 8 stages (FIG. 9) was carried out according to the Kay and Calandra ophthalmic mucous membrane irritation classification method.

sodium polystyrene sulphonate
Kay and Calandra ophthalmic mucous membrane irritation classification (8 levels): Moderately irritating
average value (score) of the maximum Draize score: 29.0
